# Assay results reported in patent US6500824B1, “Kappa (OP2) opioid receptor antagonists” (Regents of the University of Minnesota, priority 1998, dated 2002).
# Read-outs that look alike come from different tables or passages of the source. Marks after values point to notes of the source that are not given here.
# Experiments:
# [1] = target: T1, kappa (OP2) opioid receptor (Cavia porcellus, UniProt P41144); experiment: Guinea pig ileal longitudinal muscle (GPI) smooth muscle assay, antagonism of ethylketazocine (EKC); format: cell-based
# T1 construct: a strip of longitudinal muscle with the myenteric plexus attached was prepared; from tissue; host or cells: guinea pig ileal longitudinal muscle with myenteric plexus
# Protocol: (§1) 1. Guinea Pig Ileal Longitudinal Muscle (GPI). Ilea from guinea pigs were taken approximately 10 cm from the ileocecal junction, and a strip of longitudinal muscle with the myenteric plexus attached was prepared by the method of H. B. Rang et al., Brit. J Pharmacol., 1964, 22, 356. A 1 cm portion of this strip was then mounted between two platinum electrodes placed in a 10 ml organ bath and connected to an isometric transducer, contractions were recorded on a polygraph. Contractions of the ileal strip were initiated by supramaximal rectangular pulses in all preparations (80 V of 0.5 ms duration at a frequency of 0.1 Hz). Krebs bicarbonate solution containing […] chloropheniramine maleate was the bathing solution and was continuously bubbled with 95% O2 and 5% CO2. The organ bath was maintained at 36-37° C. The longitudinal strip was allowed to equilibrate with continuous stimulation for a minimum of 90 min. Cumulative concentration-response curves were determined after drugs were added to the bath in preselected amounts and washed out with buffer after noting their maximum effects.
# (§2) The standard agonists employed were [D-Ala^2, D-Leu^5]enkephalin (DADLE) (D), morphine (M) and ethylketazocine (EKC); these are selective for delta (D), mu (M) and kappa (EKC) opioid receptors, respectively. Concentration-response curves were obtained in the absence (control) and the presence of the antagonist and were determined as IC50 values. The IC50 ratio represents the IC50 in the presence of the antagonist divided by the control IC50 value in the same tissue. A concentration independent value of antagonist potency is calculated from the equation, Ke=[antagonist]/(IC50 ratio-1).
# μ(OP3) opioid receptor = experiment: Guinea pig ileal longitudinal muscle (GPI) smooth muscle assay, antagonism of morphine; format: cell-based; conditions: agonist morphine, antagonist concentration 100 nM
# Protocol: as §1, §2
# δ(OP1) opioid receptor = target: T2, δ(OP1) opioid receptor (Mus musculus, UniProt P32300); experiment: Mouse vas deferens (MVD) smooth muscle assay, antagonism of DADLE; format: cell-based
# T2 construct: Both vasa deferentia were dissected out of mice and mounted singly; from tissue; host or cells: mouse vas deferens
# Protocol: 2. Mouse Vas Deferens (MvD). This assay was performed according to the description by G. Henderson et al., Brit. J. Pharmacol., 1972, 46,764. Both vasa deferentia were dissected out of mice and mounted singly through two platinum electrodes in a 10 ml organ bath. The bath contained Krebs bicarbonate solution that was continuously bubbled with 95% O2 and 5% CO2. The organ bath was maintained at 37° C. The tissue was attached to an isometric transducer and stimulated transmurally with rectangular pulses ([…], 1 ms duration, supramaximal voltage). Drugs were added cumulatively to the bath in preselected amounts and washed out after noting their maximum effects.
# as §2
# mu opioid receptor = target: T3, mu opioid receptor (Mus musculus, UniProt P42866); experiment: Mouse tail flick assay, antagonism of morphine (μ) by ICV antagonist; format: in vivo; conditions: antagonist ICV 50 pmol, agonist morphine
# T3 construct: from tissue; host or cells: living mouse (ICV dosing)
# delta opioid receptor = target: T4, delta opioid receptor (Mus musculus, UniProt P32300); experiment: Mouse tail flick assay, antagonism of DSLET (δ) by ICV antagonist; format: in vivo; conditions: antagonist ICV 50 pmol, agonist DSLET
# T4 construct: from tissue; host or cells: living mouse (ICV dosing)
# kappa opioid receptor [2] = target: T5, kappa opioid receptor (Cavia porcellus, UniProt P41144); experiment: GPI preparation, kappa antagonist potency against U-50488H; format: cell-based, guinea pig
# T5 construct: a strip of longitudinal muscle with the myenteric plexus attached was prepared; from tissue; host or cells: guinea pig ileal longitudinal muscle with myenteric plexus
# Protocol: as §1
# wt κ receptor = target: T6, wt κ receptor (Rattus norvegicus, UniProt P34975); experiment: Competition binding with [3H]diprenorphine, whole cell binding, COS-7 cells, wt κ
# T6 construct: expressed in transfected cells; host or cells: COS-7 (per the earlier reading)
# Text: (§3) The effects of mutational exchange of Glu297 in the κ receptor and Lys303 in the μ receptor on the binding affinity of representative compounds of the invention were examined using techniques known in the art.
# κ[E297K] receptor = target: T7, κ[E297K] receptor (Rattus norvegicus, UniProt P34975, E297K); experiment: Competition binding with [3H]diprenorphine, whole cell binding, COS-7 cells, κ[E297K]
# T7 construct: expressed in transfected cells; host or cells: COS-7 (per the earlier reading)
# Text: as §3
# wt μ receptor [3] = target: T8, wt μ receptor (Rattus norvegicus, UniProt P33535); experiment: Competition binding with [3H]diprenorphine, whole cell binding, COS-7 cells, wt μ; conditions: [3H]diprenorphine competition; COS-7 whole cell binding; read-out: Ki ± SEM, wt μ
# T8 construct: expressed in transfected cells; host or cells: COS-7 (per the earlier reading)
# Text: as §3
# wt μ receptor [4] = experiment: as above; design: species or system rat; conditions: wt μ
# Text: as §3
# μ[K303E] receptor = target: T9, μ[K303E] receptor (Rattus norvegicus, UniProt P33535, K303E); experiment: Competition binding with [3H]diprenorphine, whole cell binding, COS-7 cells, μ[K303E]
# T9 construct: expressed in transfected cells; host or cells: COS-7 (per the earlier reading)
# Text: as §3
# [5] = Butorphanol-induced feeding; format: in vivo; conditions: FIG. 3
# Text: (§4) The ability of a compound to decrease butorphanol-, DAMGO-, U50,488-, 24-hour deprivation-, and Neuropeptide Y-induced feeding can be determined using models known in the art. See for example, A. S. Levine et al., Brain Research, 1998, 534, 60-64; and D. C. Jewett, et al., 1998, Society for Neuroscience Abstracts, 1, Abstract #276.10, 705.
# DAMGO-induced feeding = format: in vivo; conditions: FIG. 4
# Text: as §4
# U50,488-induced feeding = format: in vivo; conditions: FIG. 5
# Text: as §4
# [6] = 24-hour deprivation-induced feeding; format: in vivo; conditions: FIG. 6
# Text: as §4
# [7] = Neuropeptide Y-induced feeding; format: in vivo; conditions: FIG. 7
# Text: as §4
# kappa opioid receptor [8] = target: T10, kappa opioid receptor (Mus musculus, UniProt P33534); experiment: Mouse abdominal stretch assay, antagonism of U-50488H antinociception by SC antagonist; format: in vivo; design: from tissue; host or cells: living mouse (SC dosing)
# kappa opioid receptor [9] = target: T10, kappa opioid receptor; experiment: Mouse tail flick assay, antagonism of U-50488H (κ) by ICV antagonist; format: in vivo; design: from tissue; host or cells: living mouse (ICV or SC dosing)
# [10] = in vitro smooth muscle Ke, relative to nor-BNI
# [11] = GPI, agonist EKC, antagonist concentration 100 nM, read-out: Antagonist Potency Ke κ(OP2) EKC
smiles,measurement,setting,value
"N=C(N)Nc1ccc2[nH]c3c(c2c1)C[C@@]1(O)[C@H]2Cc4ccc(O)c5c4[C@@]1(CCN2CC1CC1)[C@H]3O5.O.O.O=C(O)C(F)(F)F.O=C(O)C(F)(F)F [Compound 15, 5′-Guanidinyl-17-cyclopropylmethyl-6,7-didehydro-4,5-α-epoxy-3.14-dihydroxyindolo[2′,3′:6,7]morphinan Ditrifluoroacetate Dihydrate]",Antagonist Potency Ke κ(OP2) EKC,"[1]; GPI, agonist EKC, antagonist concentration 20 nM (*)",0.144* nM
same,"selectivity ratio κ/δ, fold greater than that of nor-BNI",[1]; [10],42 fold
same,"selectivity ratio κ/μ, fold greater than that of nor-BNI",[1]; [10],9 fold
same,kappa opioid receptor selectivity (in words),"[1]; in vitro, versus morphine and DADLE antagonism, Ditrifluoroacetate Dihydrate",potent and highly selective
same,Antagonist Potency Ke μ(OP3) Morphine,μ(OP3) opioid receptor,30.00 nM
same,Antagonist Potency Ke δ(OP1) DADLE,"δ(OP1) opioid receptor; agonist DADLE, antagonist concentration 100 nM",115 nM
same,delta antagonist activity of NTI associated with the compound (in words),δ(OP1) opioid receptor; in vitro,"little, if any"
same,"ED50 Ratio (limits), Morphine (μ)",mu opioid receptor,0.8 (0.5-1.2)
same,"ED50 Ratio (limits), DSLET (δ)",delta opioid receptor,1.4 (1.0-2.2)
same,Kb,"kappa opioid receptor [2]; GPI, agonist U-50488H, read-out: Ke",0.041 nM
same,"potency relative to nor-BNI, antagonism of U-50488H","kappa opioid receptor [2]; GPI, agonist U-50488H, relative to nor-BNI",5 fold
same,Selectivity Ratio κ/δ,"kappa opioid receptor [2]; δ agonist [D-Ala2, D-Leu5]enkephalin, κ agonist U-50488H",2797
same,Selectivity Ratio κ/μ,"kappa opioid receptor [2]; μ agonist morphine, κ agonist U-50488H",728
same,Ki,"wt κ receptor; [3H]diprenorphine competition, COS-7 whole cell binding, read-out: Ki ± SEM, wt κ",0.09 ± 0.01 nM
same,Fana = Ki(analog)/Ki(nor-BNI on the wt κ receptor),wt κ receptor; wt κ,0.75
same,Ki,"κ[E297K] receptor; [3H]diprenorphine competition, COS-7 whole cell binding, read-out: Ki ± SEM, κ[E297K]",12.9 ± 0.48 nM
same,"Fmut = mutational factor, Ki(mutant receptor)/Ki(wt κ receptor)",κ[E297K] receptor; κ[E297K],143
same,Ki,wt μ receptor [3],9.23 ± 1.39 nM
same,"Fmut = mutational factor, Ki(mutant receptor)/Ki(wt κ receptor)",wt μ receptor [4],103
same,Ki,"μ[K303E] receptor; [3H]diprenorphine competition, COS-7 whole cell binding, read-out: Ki ± SEM, μ[K303E]",0.06 ± 0.02 nM
same,"Fmut = mutational factor, Ki(mutant receptor)/Ki(wt κ receptor)",μ[K303E] receptor; μ[K303E],0.67
same,effect on Butorphanol-induced feeding,[5],does not decreases
same,effect on DAMGO-induced feeding,DAMGO-induced feeding,decreases
same,"effect on U50,488-induced feeding","U50,488-induced feeding",decreases
same,effect on 24-hour deprivation-induced feeding,[6],decreases
same,effect on Neuropeptide Y-induced feeding,[7],does not decreases
same,"potency relative to nor-BNI, SC-administered","kappa opioid receptor [8]; SC, relative to nor-BNI",greater than 50 times
same,"ED50 Ratio (limits), U-50488H antinociception","kappa opioid receptor [8]; antagonist SC 0.05 μmol kg−1, U-50488H SC",3.0 (1.9-5.0)
same,"ED50 Ratio (limits), U-50488H antinociception","kappa opioid receptor [8]; antagonist SC 2.0 μmol kg−1, U-50488H SC",3.8 (2.5-6.3)
same,in vivo kappa selectivity (in words),"kappa opioid receptor [9]; in vivo studies, Tables 2 and 3",selective κ-antagonist
same,"ED50 Ratio (limits), U-50488H (κ)","kappa opioid receptor [9]; mouse tail flick, antagonist ICV 50 pmol, agonist U-50488H",4.5 (3.4-6.3)
"CNC(=N)Nc1ccc2[nH]c3c(c2c1)C[C@@]1(O)[C@H]2Cc4ccc(O)c5c4[C@@]1(CCN2CC1CC1)[C@H]3O5.O.O.O=C(O)C(F)(F)F.O=C(O)C(F)(F)F [Compound 18, 5′-Methylguanidinyl-17-cyclopropylmethyl-6,7-didehydro4,5α-epoxy-3,14-dihydroxyindolo[2′,3′:6,7]morphinan Ditrifluoroacetate Dihydrate]",Kb,[1]; [11],0.59 nM
same,Antagonist Potency Ke μ(OP3) Morphine,μ(OP3) opioid receptor,10.8 nM
"CCCCNC(=N)Nc1ccc2[nH]c3c(c2c1)C[C@@]1(O)[C@H]2Cc4ccc(O)c5c4[C@@]1(CCN2CC1CC1)[C@H]3O5.O.O.O=C(O)C(F)(F)F.O=C(O)C(F)(F)F [Compound 17, 5′-N-Butylguanidinyl-17-cyclopropylmethyl-6,7-didehydro4,5α-epoxy-3,14-dihydroxyindolo[2′,3′:6,7]morphinan Ditrifluoroacetate Dihydrate]",Kb,[1]; [11],0.09 nM
"N#C/N=C(\NCCN1CCCC1)Nc1ccc2[nH]c3c(c2c1)C[C@@]1(O)C2Cc4ccc(O)c5c4[C@@]1(CCN2CC1CC1)C3O5 (stereo partly drawn) [Compound 21, 5′-N-Cyano-N′-[2-(1-aminoethylpyrrolidine)]-N″-[17-(cyclopropylmethyl)-6,7-didehydro4,5α-epoxy-3,14dihydroxyindolo[2′,3′:6,7]morphinian]-guanidine]",Kb,[1],0.47 nM
same,Antagonist Potency Ke μ(OP3) Morphine,μ(OP3) opioid receptor,5.71 nM
same,Kb,δ(OP1) opioid receptor,127 nM
"CN(C)CCCN/C(=N\C#N)Nc1ccc2[nH]c3c(c2c1)C[C@@]1(O)C2Cc4ccc(O)c5c4[C@@]1(CCN2CC1CC1)C3O5 (stereo partly drawn) [Compound 20, 5′-N-Cyano-N′-[3-(dimethylaminopropyl)]-N″-[17-(cyclopropylmethyl)6,7-didehydro4,5α-epoxy-3,14-dihydroxyindolo[2′,3′:6,7]morphinian]-guanidine]",Kb,[1],0.24 nM
same,Antagonist Potency Ke μ(OP3) Morphine,μ(OP3) opioid receptor,10.4 nM
